Calls of active or inactive are those of the source. The calls are words filed in the database; no cut-off is given here.
How the values were obtained:
[1] = molecular target: RAF proto-oncogene serine/threonine-protein kinase (Homo sapiens, UniProt P04049); test: Inhibition of human recombinant cRAF measured after 1 hr by TR-FRET assay
NCI-H358 [2] = test: Growth inhibition of human H358 cells expressing KRAS […] mutant measured after 3 days by Cell-titer Glo assay; assay type: functional; conditions: NCI-H358, 72 h, time 3 day
NCI-H358 [3] = test: Effect on Erk signalling pathway in human H358 cells assessed as increase in Erk phosphorylation by HTRF assay; assay type: functional, cell-based

RAF proto-oncogene serine/threonine-protein kinase, sequence (P04049 whole entry): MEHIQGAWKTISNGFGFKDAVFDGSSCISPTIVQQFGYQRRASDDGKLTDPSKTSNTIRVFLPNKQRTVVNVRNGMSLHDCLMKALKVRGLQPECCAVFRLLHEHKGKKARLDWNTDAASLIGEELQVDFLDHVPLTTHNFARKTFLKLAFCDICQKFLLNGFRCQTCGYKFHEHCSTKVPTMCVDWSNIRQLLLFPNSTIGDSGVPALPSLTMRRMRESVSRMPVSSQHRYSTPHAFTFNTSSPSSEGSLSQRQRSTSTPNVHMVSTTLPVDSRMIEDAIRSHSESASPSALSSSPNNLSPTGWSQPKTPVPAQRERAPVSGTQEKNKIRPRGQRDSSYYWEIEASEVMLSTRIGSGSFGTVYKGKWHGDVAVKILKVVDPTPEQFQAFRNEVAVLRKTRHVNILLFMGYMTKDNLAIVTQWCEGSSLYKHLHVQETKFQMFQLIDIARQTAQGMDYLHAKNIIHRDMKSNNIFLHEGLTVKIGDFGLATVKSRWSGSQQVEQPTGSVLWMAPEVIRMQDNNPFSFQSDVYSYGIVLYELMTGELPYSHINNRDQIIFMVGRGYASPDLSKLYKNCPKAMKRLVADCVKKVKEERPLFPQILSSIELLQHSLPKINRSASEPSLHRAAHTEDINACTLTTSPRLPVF

| SMILES | IC50 [1] [nM] | GI50 (NCI-H358 [2]) [nM] | Activity (NCI-H358 [3]) |
| --- | --- | --- | --- |
| Cc1ccc(NC(=O)c2ccnc(C(F)(F)F)c2)cc1-c1ccc2c(c1)OC1(CCOCC1)CC2NCCO (stereo not given) | 29 | 14000 |  |
| Cc1ccc(NC(=O)c2ccnc(C(F)(F)F)c2)cc1-c1ccc2c(c1)OC1(CCS(=O)(=O)CC1)NC2=O | 5 | 7300 |  |
| Cc1ccc(NC(=O)c2ccnc(C(F)(F)F)c2)cc1-c1ccc2c(c1)C(=O)CC1(CCOCC1)O2 | 37 | 9700 |  |
| Cc1ccc(NC(=O)c2ccnc(C(F)(F)F)c2)cc1-c1ccc2c(c1)OC1(CCCOC1)NC2=O (stereo not given) | 5 | 4900 |  |
| Cc1ccc(NC(=O)c2ccnc(C(F)(F)F)c2)cc1-c1ccc2c(c1)NC1(CCOCC1)NC2=O | 4.8 | 15000 |  |
| Cc1ccc(NC(=O)c2ccnc(C(F)(F)F)c2)cc1-c1ccc2c(c1)OC1(COC1)NC2=O | 62 | 10000 |  |
| Cc1ccc(NC(=O)c2ccnc(C(F)(F)F)c2)cc1-c1ccc2c(c1)OC1(CCOCC1)CC2O (stereo not given) | 19 | 9100 |  |
| Cc1ccc(NC(=O)c2ccnc(C(F)(F)F)c2)cc1-c1ccc2c(c1)OC1(CCSCC1)NC2=O | 7 | 5600 |  |
| Cc1ccc(NC(=O)c2ccnc(C(F)(F)F)c2)cc1-c1cc(OCCO)nc(N2CCOCC2)c1 [NAPORAFENIB] |  | 3000 | Active |
| Cc1ccc(NC(=O)c2ccnc(C(F)(F)F)c2)cc1-c1ccc2c(c1)OC1(CCOC1)NC2=O (stereo not given) | 4.3 | 8300 |  |
